Source: US10188651B2, “Methods of treating sleep disorders” (Melior Pharmaceuticals II, LLC, priority 2013, dated 2019)

Tests used:
[1] = tested on: unilaterally lesioned 6-OHDA rats; assay: Axial, limb and orolingual (ALO) AIMs rating, chronic dosing
Experimental: L-dopa was administered at a dose level of 12 mg/kg (ip) along with benserazide (ip; 4 mg/kg). Sydnocarb (10 or 30 mg/kg, ip), amantadine (40 mg/kg ip), or vehicle was administered 30 minutes prior to L-dopa/benserazide. As a “priming” step, L-dopa was administered daily by itself for 1 week after the amphetamine rotation wash-out period. Subsequently, Sydnocarb, along with L-dopa, was dosed daily for an additional 12 days.
After treatment, rats were placed in a confined chamber and monitored for axial, limb, and orolingual AIMs every 20-30 minutes for 2 hours as follows:
For the first minute, AIMs were assessed in three areas: • a. Axial: dystonic posturing of the neck and torso in a twisted manner directed toward the side of the body contralateral to the lesion; • b. Forelimb: rapid, purposeless movements of the forelimb located on the side of the body contralateral to the lesion; and; • c. Orolingual: repetitive openings and closings of the jaw and tongue protrusions occurring at times when the rats are not chewing or knowing on food or other objects.
AIMs were scored and recorded on a scale from 0 to 4: • 0=not present; • 1=present for less than 50% of the Observation period; • 2=present for 50% or more of the observation period; • 3=present for the entire observation period but interrupted by a loud stimulus (a tap on the cage); and • 4=present for the entire observation period and not interrupted by a loud stimulus.
For the second minute, contralateral rotations, defined as complete 360 turns away from the lesioned side of the brain, were tallied.
Ipsilateral rotations were counted as negative numbers and thus, deducted from the total contralateral rotations.
For each AIMs subcategory, the scores were summed for the entire testing period.
After an additional one week, baseline AIMs were measured and rats were treated with L-dopa at 12 mg/kg and Sydnocarb at 10 and 30 mg/kg (ip) for 12 days. On days 1, 8, 10, and 12, AIMs were scored every 20 minutes for 2 hours and graphed as a sum of axial, limb, and orolingual (ALO) abnormal movements (FIG. 6).
Sydnocarb was administered at 3 mg/kg (ip) to 6-OHDA-lesioned rats once per day for 12 days.
Sprague-Dawley rats (3/group) were injected unilaterally with 6-OHDA as described herein. Two weeks later, rats were tested for amphetamine-induced rotation activity to verify the dopaminergic lesion. After an additional six weeks, baseline AIMs were measured and rats were treated with Sydnocarb at 3 mg/kg (ip) for 12 days. No L-dopa was administered in this experiment. On days 5 and 12, AIMs were scored at 30, 90, and 150 minutes post-dose and graphed as a sum of axial, limb, and orolingual (ALO) abnormal movements (FIG. 11).

[2] = tested on: 6-OHDA unilaterally lesioned Sprague-Dawley rats; assay: Abnormal involuntary movements (AIMs) test, Examples 1 and 2; settings: for abnormal involuntary movements (AIMs) score compared to vehicle-treated rats: once daily, scored 60 min after injection, L-dopa 6 mg/kg for 5 days, Sydnocarb 10 and 30 mg/kg, no combination; for effect of test drug on L-dopa-induced AIMs (dyskinesia): L-dopa day 1 (50 mg/kg), L-dopa and test drug day 2
Experimental: Female, Sprague-Dawley rats (Charles River Laboratories) at 7 to 8 weeks of age were used. Animals were assigned randomly to treatment groups. The diet consisted of standard rodent chow and water ad libitum.
6-OHDA was formulated at 5 mg/ml solution in 0.03% ascorbic acid in sterile 0.9% NaCl. Three μL of 6-OHDA was injected into the median forebrain bundle at the following stereotaxic coordinates from bregma: Anteroposterior (A/P) −4.0 mm; mediolateral (M/L) −1.3 mm; ventrodorsal (V/D) −8.0 mm with reference to the top of the skull.
After lesion, rats were allowed to recover for two weeks and then tested for amphetamine-induced rotational activity. Animals were treated with 25 mg/kg amphetamine in saline and recorded in an open-field chamber for 90 minutes. Only rats rotating greater than 4 times per minute were used in efficacy studies. After an additional one week, rats were treated with L-dopa (Isotec IY0630) at various times and measured for the appearance of abnormal involuntary movements (AIMs).
The AIMs test was carried out as follows: 1) weigh rat and inject with L-dopa/benserazide (10 ml/kg, ip); may be a single injection per day over multiple days; administration of a test compound or reference compound may also be included; 2) place rat in empty cage, start video recording; 3) AIMs were assessed in four areas: a) onset of symptoms-latency (seconds) to first visual AIM as defined below; b) 30 minute AIM score; c) 60 minute AIM score; and d) number of left rotations from 30-60 minutes; 4) AIMs were scored and recorded on a scale from 0 to 4: i) absent; ii) slight left forelimb dystonia with grooming; iii) excessive left forelimb dystonia with grooming; iv) left forelimb dystonia with left circling; and v) continuous left circling with or without grooming; 5) record any unusual clinical signs; and 6) after 60 minutes, stop recording, place rat back into home cage.
Sixty minutes after injection, abnormal involuntary movements (AIMs) were scored.
Rats receiving a unilateral 6-OHDA lesion as described above were treated with L-dopa (day 1, 50 mg/kg) and then L-dopa and test drug (day 2, Sydnocarb or Tesofensine).

6-OHDA-lesioned rats = assay: Forelimb adjusting step (FAS) test; assay type: in vivo, rat
Experimental: In 6-OHDA-lesioned rats, L-dopa administration also elicits a therapeutically beneficial anti-akinetic activity that can be measured by the forelimb adjusting step (FAS) test. To determine the effect of Sydnocarb on L-dopa efficacy on this motor function, 6-OHDA-lesioned rats were treated with L-dopa in combination with Sydnocarb at 10 mg/kg and assessed by the FAS test (see, FIG. 3).
For three consecutive days, the experimenter that performed the study handled the rats so they were familiar with the experimenter's grip: the rat was held with one hand fixing the hindlimbs and slightly raising the hind part above the surface; the other hand fixed the forelimb not to be monitored; the forelimb to be monitored was touching the table; the animal was moved slowly sideways (approx. 5 sec for 90 cm), first in the forehand and then in the backhand; and these steps were repeated for the other forelimb. Forehand is defined as compensating movement toward the body and backhand is defined as compensating movement away from the body.
Each stepping test consisted of six trials for each forepaw, alternating between directions both forehand and backhand as follows: the rat was held in the same position as described above with one paw touching the table; the rat was moved slowly sideways (approx 5 sec for 90 cm), first in the forehand and then in the backhand; the number of adjusting steps for both paws in the forehand and back hand directions of movement were counted and recorded; and the sequence of testing was left paw forehand and backhand adjusting stepping, followed by right paw backhand and forehand directions. The rat was returned to its home cage and the sequence repeated with the second rat in the cage. Five more trials were performed for each rat, placing the rats back in their home cage between trials.
This portion of the experiment was run 3-4 weeks post 6-OHDA lesion, and at least 1 week post rotations testing as follows: prior to the start of dosing, rats were trained and baselines performed as above; preparation of L-dopa with benserazide (concentrations are for i.p. injection, 10 ml/kg): a) L-dopa dissolved in saline at 1.2 mg/ml; and b) benserazide dissolved in saline at 0.4 mg/ml; preparation of sydnocarb 10 mg/kg (concentrations are for i.p. injection, 10 ml/kg): a) sydnocarb dissolved in 0.5% methylcellulose, 0.2% tween 80 in dH2O at 1 mg/ml.
Rats were weighed and injected with L-dopa/benserazide (12 mg/kg/4 mg/kg). FAS were run approximately 60 minutes post L-dopa/benserazide dose. Rats were returned to home cage.
Rats were weighed and injected with sydnocarb 10 mg/kg or vehicle (0.5% methylcellulose, 0.2% tween 80 in dH2O), 30 minutes prior to L-dopa/benserazide dosing. The rest of the study was continued as described in Day 1.
Data were represented as percent by summing steps (forward and backhand) of the lesioned forelimb and dividing by the sum of the steps of the intact forelimb and multiplying by 100, giving a measure of the degree of forepaw disability. A similar calculation was obtained for percent of lesioned forelimb, giving a measure of gain of function.
Sprague-Dawley rats (6/group) were injected unilaterally with 6-OHDA as described above. […] Forepaw adjusting steps were scored and graphed as a percent of the intact (unaffected) forelimb. […] (**p<0.01, p=0.058, One-way ANOVA with post-hoc t-test compared to veh+veh). […] Moreover, Sydnocarb may allow the use of lower therapeutic doses of L-dopa, thereby reducing potential L-dopa-induced side effects.
L-dopa was administered at a dose level of 6 mg/kg (ip) along with benserazide (ip; 2 mg/kg). […] For these 6 mg/kg L-dopa studies, rats were combined from two previous L-dopa/Sydnocarb studies and allowed a 3-week wash out period.
After an additional one week, baseline FAS was measured and rats were treated with L-dopa at 6 mg/kg and Sydnocarb at 3 and 10 mg/kg (ip) for 12 days. […]

[3] = tested on: C57Bl/6 mice treated with MPTP; assay: Open Field Activity assay after MPTP; assay type: in vivo, mouse; settings: compound 30 min prior to MPTP (3x20 mg/kg) and daily for 4 days; measured day 5, 30 min open field
Experimental: An Open Field Activity assay was performed in which locomotor and sensorimotor parameters were evaluated in an automated open-field apparatus. 1-methyl-4-phenyl-1,2,3,6-tetrahydropyridine (MPTP) injections (3×20 mg/kg) were performed in C57Bl/6 mice at two-hour intervals (final dose of MPTP=60 mg/kg). Mice were treated with the compound 30 minutes prior to MPTP and daily for 4 days. Locomotor activity was monitored on day 5, thirty minutes after administration of test compound. Locomotor activity was measured in an automated open-field (MedAssociates) for 30 minutes. The following parameters were measured: 1) horizontal distance traveled, 2) number of rearing events and 3) stereotypic behavior.

[4] = humans; cited from earlier work
noradrenaline reuptake = settings: rat synaptosomes; Erdö et al. 1981; cited from earlier work
[5] = equimolar doses, cited from earlier work
[6] = Gruner et al. 2011; cited from earlier work
extracellular DA = settings: rat striatum and nucleus accumbens; cited from earlier work
DA transporter (DAT) = DA transporter (DAT) (Homo sapiens, UniProt Q01959); settings: Gruner et al. 2011; cited from earlier work
Chain of DA transporter (DAT) (Q01959 whole entry, species assumed): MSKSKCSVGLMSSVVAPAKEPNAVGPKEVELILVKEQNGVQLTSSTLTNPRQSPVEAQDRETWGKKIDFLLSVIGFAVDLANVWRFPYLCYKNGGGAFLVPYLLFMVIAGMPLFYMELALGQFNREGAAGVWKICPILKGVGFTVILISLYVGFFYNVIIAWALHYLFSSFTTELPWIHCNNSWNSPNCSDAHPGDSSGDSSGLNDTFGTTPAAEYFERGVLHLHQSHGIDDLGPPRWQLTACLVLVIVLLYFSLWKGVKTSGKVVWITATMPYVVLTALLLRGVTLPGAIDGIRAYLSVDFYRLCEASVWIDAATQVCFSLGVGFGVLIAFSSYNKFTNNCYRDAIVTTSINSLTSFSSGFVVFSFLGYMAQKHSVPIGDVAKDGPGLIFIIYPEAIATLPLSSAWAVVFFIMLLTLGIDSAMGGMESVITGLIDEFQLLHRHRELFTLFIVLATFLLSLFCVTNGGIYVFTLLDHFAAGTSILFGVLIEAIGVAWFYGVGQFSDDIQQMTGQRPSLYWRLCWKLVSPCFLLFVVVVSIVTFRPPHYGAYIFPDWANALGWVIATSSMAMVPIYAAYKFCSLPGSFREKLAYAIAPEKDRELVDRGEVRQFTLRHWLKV

[7] = humans and animals; cited from earlier work
C57Bl/6 mice = assay: Mouse electroencephalogram, time awake; assay type: in vivo; settings: intraperitoneal injection 4 hours after lights-on
Experimental: Electroencephalographic data were obtained in C57Bl/6 mice chronically implanted with electrodes to monitor brain and muscular activity. The percent time spent awake was evaluated following intraperitoneal injections of Sydnocarb 4 hours after lights-on, when mice are predominantly sleeping.

[8] = L-dopa 12 mg/kg and Sydnocarb 10 mg/kg ip (day 2)

N[C@@H](Cc1ccc(O)c(O)c1)C(=O)O [L-dopa]
sum of ALO AIMs compared to baseline ([1]; L-dopa 12 mg/kg ip with benserazide, chronic dosing): increase in AIMS compared to baseline | abnormal involuntary movements (AIMs) score compared to vehicle-treated rats [2]: significantly higher AIMs scores | abnormal involuntary movements (AIMs) caused by L-dopa ([2]; two-day treatment with L-dopa, 50 mg/kg): increase in abnormal involuntary movements | FAS, % affected paw compared to baseline (6-OHDA-lesioned rats; L-dopa 6 mg/kg ip alone, 12 days): slight increase in adjusting steps compared to baseline | forepaw adjusting steps, percent of the intact forelimb, compared to vehicle (6-OHDA-lesioned rats; L-dopa 12 mg/kg alone): slight increase in steps compared to vehicle

CC(Cc1ccccc1)[n+]1cc([N-]C(=O)Nc2ccccc2)on1 (stereo not drawn) [Sydnocarb, 3-(β-phenylisopropyl)-N-phenylcarbamoylsydnonimine]
vertical activity (rearing events) [3]: prevent decrease in vertical activity | toxic episodes and abuse potential [4]: neither significant toxic episodes nor abuse potential have been reported | noradrenaline reuptake (noradrenaline reuptake): attenuates noradrenaline reuptake | sum of ALO AIMs compared to vehicle ([1]; L-dopa 12 mg/kg and Sydnocarb 10 and 30 mg/kg ip for 12 days, days 1, 8, 10, 12): decrease in AIMs compared to vehicle | sum of ALO AIMs compared to vehicle ([1]; L-dopa 12 mg/kg and Sydnocarb 10 and 30 mg/kg po for 12 days, days 5 and 12): decrease in AIMs compared to vehicle | AIMs scores relative to L-dopa treatment ([1]; Sydnocarb 3 mg/kg ip for 12 days, no L-dopa): approximately 20 times lower | sum of ALO AIMs, Sydnocarb alone ([1]; Sydnocarb 3 mg/kg ip for 12 days, no L-dopa, days 5 and 12): nominal AIMs | effect of test drug on L-dopa-induced AIMs (dyskinesia) [2]: ameliorates L-dopa-induced dyskinesia | reduction of L-dopa-induced AIMs ([2]; Sydnocarb administered 30 min after L-dopa, seen 30 and 60 minutes after L-dopa administration): approximately 40% | abnormal involuntary movements (AIMs) score compared to vehicle-treated rats [2]: did not cause significant AIMs | markers of neurotoxicity relative to D-AMPH ([5]; DA depletion, reactive oxygen species, lipid peroxidation): smaller changes in the markers of neurotoxicity | hyperlocomotion and stereotypy relative to D-AMPH [5]: less hyperlocomotion and stereotypy | rebound hypersomnolence [6]: lacks the rebound hypersomnolence | extracellular DA increase compared with D-AMPH (extracellular DA): slower and more gradual increase in extracellular DA | DAT activity (DA transporter (DAT)): has DAT activity | FAS adjusting steps compared to vehicle (6-OHDA-lesioned rats; L-dopa 6 mg/kg and Sydnocarb 3 mg/kg ip for 12 days, days 5 and 12): increase in adjusting steps compared to vehicle | FAS adjusting steps compared to vehicle (L-dopa alone) (6-OHDA-lesioned rats; L-dopa 6 mg/kg and Sydnocarb 10 mg/kg po for 12 days, day 12, 60 min post-dose): slight increase, and importantly no decrease, in adjusting steps | forepaw adjusting steps as percent of the intact forelimb (6-OHDA-lesioned rats; [8]): ~100% | forepaw adjusting steps, percent of the intact forelimb, compared to vehicle (6-OHDA-lesioned rats; [8]): significant increase | adjusting step scores compared to L-dopa alone (6-OHDA-lesioned rats; Sydnocarb 10 mg/kg with L-dopa): increased scores compared to L-dopa alone | metabolite formed [7]: metabolized to D-amphetamine | percent time spent awake compared to vehicle controls (C57Bl/6 mice): dose-dependently increased time awake

CCOC[C@@H]1[C@@H](c2ccc(Cl)c(Cl)c2)C[C@@H]2CC[C@H]1N2C [Tesofensine]
vertical activity (rearing events) [3]: prevent decrease in vertical activity | effect of test drug on L-dopa-induced AIMs (dyskinesia) [2]: had no affect on AIMs
